Test results taken from PubChem BioAssay (NCI).
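Test compounds were applied to cells in 96-well plates for 48 hours at 5 doses. Here, GI50 denotes the concentration required for 50% inhibition of growth. TGI: total growth inhibition.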

Tests used:
Experiment in all cases: NCI-60 cell line screen, 48 h
A498 renal = tested on: A498 renal
HT29 colon = tested on: HT29 colon
LOX IMVI melanoma = tested on: LOX IMVI melanoma
MDA-MB-435 = tested on: MDA-MB-435
MDA-N = tested on: MDA-N
RPMI-8226 leukemia = tested on: RPMI-8226 leukemia
SF-268 CNS = tested on: SF-268 CNS
SF-295 CNS = tested on: SF-295 CNS
SR leukemia = tested on: SR leukemia
TK-10 renal = tested on: TK-10 renal
UACC-257 melanoma = tested on: UACC-257 melanoma

Compound	TGI (A498 renal)	TGI (HT29 colon)	TGI (LOX IMVI melanoma)	TGI (MDA-MB-435)	TGI (MDA-N)	TGI (RPMI-8226 leukemia)	TGI (SF-268 CNS)	TGI (SF-295 CNS)	TGI (SR leukemia)	TGI (TK-10 renal)	TGI (UACC-257 melanoma)	GI50 (A498 renal)	GI50 (HT29 colon)	GI50 (LOX IMVI melanoma)	GI50 (MDA-MB-435)	GI50 (RPMI-8226 leukemia)	GI50 (SF-268 CNS)	GI50 (SF-295 CNS)	GI50 (SR leukemia)
COc1ccc2c(c1)/c(=C/C#N)c1c3ccccc3[n+](C)n21	13.9 µM	10.6 µM	28.6 µM	19.3 µM	40.9 µM	8.03 µM	30.5 µM	42.1 µM	> 100 µM	20.7 µM	19.3 µM								
COc1cccc(CCNc2c(C#N)c3n(c4ccccc4[n+]3C)c3ncccc23)c1	57 µM	3.14 µM	3.08 µM	45.6 µM	11.1 µM	6.59 µM	38.5 µM	3.67 µM	> 100 µM	50.1 µM	46.3 µM								
C(=N\NC1=NCCN1)/c1ccc2ccccc2c1	28.9 µM	30.4 µM	26.7 µM	31.3 µM	27.9 µM	49.4 µM	47.6 µM	29.9 µM	> 100 µM	26.4 µM	29.3 µM								
COc1cc(S(=O)(=O)Nc2ccc(-c3csc(N4C(=O)CSC4c4ccccc4O)n3)cc2)ccc1Cl (stereo not given)		> 100 µM	> 100 µM	> 100 µM	> 100 µM	> 100 µM	> 100 µM	> 100 µM	> 100 µM		97.6 µM								
CC1CN(CCO)CCN1c1ccccc1 (stereo not given)	> 100 µM	> 100 µM	> 100 µM	> 100 µM	> 100 µM	> 100 µM	> 100 µM	> 100 µM	> 100 µM	> 100 µM	> 100 µM								
CCC(Nc1ncnc2nc[nH]c12)C(=O)O (stereo not given)	> 100 µM	> 100 µM	> 100 µM	> 100 µM	> 100 µM	> 100 µM	> 100 µM	> 100 µM	> 100 µM	> 100 µM	> 100 µM								
CN(C)CC1CCC/C(=C\c2ccc(OC(=O)/C=C/c3ccc(Cl)cc3)cc2)C1=O (stereo not given)	16.3 µM	7.12 µM	9.39 µM	21.1 µM	18.6 µM	1.8 µM	12.4 µM	19.7 µM	2.87 µM	4.73 µM	32.6 µM								
CN(C)S(=O)(=O)c1nc(Cl)c2[nH]cnc2n1	> 100 µM	> 100 µM	> 100 µM	> 100 µM	> 100 µM	> 100 µM	> 100 µM	> 100 µM	> 100 µM	> 100 µM	> 100 µM								
Cc1nc2ccc(NC3OCC(O)C(O)C3O)cc2c(=O)n1-c1ccccc1 (stereo not given)	> 100 µM	> 100 µM	> 100 µM	> 100 µM	> 100 µM	> 100 µM	> 100 µM	> 100 µM	> 100 µM	> 100 µM	> 100 µM								
O=C1Nc2ccc(Br)cc2/C1=N/N1C(=O)C(=O)N(C2CCCCC2)C1=S	13.9 µM	7.91 µM	15.7 µM	8.16 µM	7.56 µM	19.9 µM	30.3 µM	15.4 µM	10.6 µM	35 µM	34.7 µM								
CSc1nc(NCc2ccccc2)c2cnn(COCCO)c2n1		> 100 µM	> 100 µM	80.5 µM	> 100 µM	> 100 µM	> 100 µM	> 100 µM	> 100 µM	> 100 µM	64 µM								
COC(=O)c1c2c(cc3c1CC1(Cc4ccccc4C1)C3)CCC2	> 100 µM	34 µM	34 µM	39.1 µM	33.9 µM	45.8 µM	> 100 µM	61.7 µM	54.2 µM	> 100 µM	47 µM								
CSc1ncc2c(n1)-c1ccccc1OC2	73.6 µM	> 100 µM	> 100 µM	> 100 µM	> 100 µM	> 100 µM	> 100 µM	> 100 µM	> 100 µM	> 100 µM	> 100 µM								
COc1ccc([I+]c2ccc(OC)cc2)cc1	> 100 µM	> 100 µM	> 100 µM	> 100 µM	> 38.3 µM	> 100 µM	> 100 µM	> 100 µM	> 100 µM	> 100 µM	> 100 µM	5.52 µM	5.54 µM	6.05 µM	14.7 µM	4.16 µM	12.6 µM	5.07 µM	3.81 µM
N#CC1=C(N)N(/N=C/c2ccco2)C(c2ccco2)C1(C#N)C#N (stereo not given)	29.9 µM	32.2 µM	28.2 µM	41.4 µM	37.4 µM	44 µM	79.7 µM	79 µM	39.3 µM	32.4 µM	33.2 µM								
NC(=S)N1N=C2c3ccccc3CCC[C@H]2[C@@H]1c1ccccc1	23.3 µM	6.18 µM	16.4 µM	0.326 µM	0.279 µM	17.2 µM	39.4 µM	10.6 µM	> 32.9 µM	52 µM	25.7 µM								
CCNC(=S)NNC(=O)c1ccccc1Nc1ccccc1C(=O)NNC(=S)NCC		> 100 µM	> 100 µM	> 100 µM	> 100 µM	> 100 µM		> 100 µM	> 100 µM	> 100 µM									
CNC(=O)CNC(=O)N(C[C@@H]1CCCN1C(=O)[C@H](CC(C)C)NC(=O)OC(C)(C)C)C(C)C	> 100 µM	> 100 µM	> 100 µM	> 100 µM	> 100 µM	> 100 µM	> 100 µM	> 100 µM	> 100 µM										

Compound	TGI (A498 renal)	TGI (HT29 colon)	TGI (LOX IMVI melanoma)	TGI (MDA-MB-435)	TGI (MDA-N)	TGI (RPMI-8226 leukemia)	TGI (SF-268 CNS)	TGI (SF-295 CNS)	TGI (SR leukemia)	TGI (TK-10 renal)	TGI (UACC-257 melanoma)	GI50 (A498 renal)	GI50 (HT29 colon)	GI50 (LOX IMVI melanoma)	GI50 (MDA-MB-435)	GI50 (RPMI-8226 leukemia)	GI50 (SF-268 CNS)	GI50 (SF-295 CNS)	GI50 (SR leukemia)
COc1cc(/C=C/C(=N\NC(N)=S)c2sc(NNC(C)=O)nc2C)ccc1O	> 100 µM	> 100 µM	> 100 µM	> 100 µM	> 100 µM	> 100 µM	> 100 µM	> 100 µM	> 100 µM	> 100 µM	> 100 µM								
C=CCOC(=O)Cn1ccc(=O)[nH]c1=O	> 100 µM	> 100 µM	> 100 µM		> 100 µM	> 100 µM	> 100 µM	> 100 µM	> 100 µM	> 100 µM	> 100 µM								
COc1ccc(/C=C/C(=O)c2ccc(Br)cc2)cc1	> 100 µM	> 100 µM		> 100 µM	> 100 µM	> 100 µM	> 100 µM	> 100 µM	> 100 µM	> 100 µM									
CCOC(=O)c1cc(C)nc2c1c(=O)n(-c1ccccc1)c(=O)n2CCCCN1CCN(c2ncccn2)CC1	> 100 µM	> 100 µM	> 100 µM	> 100 µM	> 100 µM	> 100 µM	> 100 µM	> 100 µM	> 100 µM	> 100 µM	> 100 µM								
C=C(C)CCC1C=[N+]([O-])OC(C)(C)C1(C)C (stereo not given)	> 100 µM	> 100 µM	> 100 µM	> 100 µM	> 100 µM	> 100 µM	> 100 µM	> 100 µM	> 100 µM	> 100 µM	> 100 µM								
CCOS(=O)(=O)c1ccc(-c2c3nc(c(-c4ccc(S(=O)(=O)OCC)cc4)c4ccc([nH]4)c(-c4ccc(S(=O)(=O)OCC)cc4)c4nc(c(-c5ccc(S(=O)(=O)OCC)cc5)c5ccc2[nH]5)C=C4)C=C3)cc1	> 31.6 µM	> 100 µM		> 31.6 µM	> 31.6 µM	> 31.6 µM	> 31.6 µM	> 31.6 µM	> 31.6 µM	> 31.6 µM	> 31.6 µM								
Cc1ccc(S(=O)(=O)N(CCNC(=O)c2cccc(O)c2O)c2cc3c4c(c2)Oc2cccc5c2C4(C)c2c(cccc2O3)O5)cc1	> 100 µM	> 100 µM	> 100 µM	> 100 µM	> 100 µM	> 100 µM	> 100 µM	> 100 µM	> 100 µM	> 100 µM	> 100 µM								
CCOC(=O)NN(C(=O)OCC)C(C(=O)c1ccccc1)N(NC(=O)OCC)C(=O)OCC	> 100 µM	> 100 µM	> 100 µM	> 100 µM	> 100 µM	> 100 µM	> 100 µM	> 100 µM	> 100 µM	> 100 µM	> 100 µM								
O=C1CC(c2ccccc2)n2c(nc3ccccc32)N1 (stereo not given)	> 100 µM	> 100 µM	> 100 µM	> 100 µM	> 100 µM	> 100 µM	> 100 µM	> 100 µM	> 100 µM	> 100 µM	> 100 µM								
Cn1cc2c3ccccc3nc-2c2ccccc21	3.27 µM	5.35 µM	4.36 µM	6.33 µM	5.95 µM	3.94 µM	6.86 µM	10.4 µM	2.1 µM	20.6 µM	5.85 µM								
COc1ccc(-c2nnc3n(C)c4ccccc4n3c2=O)cc1	> 100 µM	> 100 µM	> 100 µM	> 100 µM	> 100 µM		> 100 µM	84.3 µM	> 100 µM	> 100 µM	> 100 µM								
CN1C(=O)C23CCCC2CC1(c1ccccc1)S3 (stereo not given)	> 100 µM	> 100 µM	> 100 µM	> 100 µM	> 100 µM	> 100 µM	> 100 µM	> 100 µM	> 100 µM	> 100 µM	80.6 µM								
Cc1ccnc(Nc2[nH]c(C(=O)c3ccc(Cl)cc3)c(N)c2C(=S)Nc2ccccc2)c1	36.9 µM	28.6 µM	28.3 µM	35.3 µM	47.9 µM	31.3 µM	59.8 µM	36.8 µM	39 µM	69.2 µM	32.7 µM								
Fc1ccc(C(OCCN2CCC3CCC(C2)N3C/C=C/c2cccs2)c2ccc(F)cc2)cc1 (stereo not given)	21 µM	15.4 µM	18.9 µM	20.5 µM	22 µM	1.78 µM	24.6 µM	22.4 µM		24.3 µM	15.1 µM								
O=C1CN(c2cccc(C(F)(F)F)c2)C(=O)CN1CCN1CC(=O)N(c2cccc(C(F)(F)F)c2)CC1=O		> 100 µM		> 100 µM	> 100 µM	> 100 µM	> 100 µM	> 100 µM	> 100 µM	> 100 µM	> 100 µM								
Cc1cc(C)n(-c2nc(C)c(CCO)c(=O)[nH]2)n1		> 100 µM	> 100 µM	> 100 µM	> 100 µM	> 100 µM	> 100 µM	> 100 µM	> 100 µM	> 100 µM	> 100 µM								
O=C(O)c1nn(-c2ccccc2)nc1-c1nn(-c2ccccc2)nc1C(=O)O		> 100 µM	> 100 µM	> 100 µM	> 100 µM	> 100 µM	> 100 µM	> 100 µM	> 100 µM	> 100 µM	> 100 µM								
